Results: ChEMBL document CHEMBL1128386, “Structure-activity relationships of milrinone analogues determined in vitro in a rabbit heart membrane Ca(2+)-ATPase model” (J Med Chem, 1995)

Species on record: Oryctolagus cuniculus
Experiment: Activity against [Ca2+]-ATPase assay in rabbit myocardial membrane.
Assay type: cell membranes
Details: Myocardium

Activity | Compound
6.6 µM | Cc1nc(O)c(Br)cc1-c1ccncc1
0.03 µM | Cc1cnccc1-c1cnc(O)c(N)c1
10.7 µM | Cc1[nH]c(=O)c(C#N)cc1-c1ccncc1
0.5 µM | Cc1cnccc1-c1cnc(O)c(C#N)c1
3.3 µM | Cc1cnccc1-c1cc(C#N)c(O)nc1C
1.4 µM | Nc1cc(-c2ccncc2)c[nH]c1=O
6 µM | Cc1nc(O)c(N)cc1-c1ccncc1
